Records with an inconclusive call do not appear. Active and inactive are the calls of the source.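 The calls were made as follows: active = compounds lowering the luciferase signal with a fitted half-maximal dose at most twice their top valid dose (cut at about 30 µM in these data); inconclusive = flat fits with moderate signal loss, or poor fits; inactive = the rest.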 Bounds are passed on as bounds.

The assay concerns Clone20 osteoblast Shn3 3'UTR firefly luciferase, 24 h. The experiment in a line: Schnurri-3 3'UTR-luciferase signal suppressors – cell-based, Clone20 osteoblasts, luminescence, dry powder, set 2, dose response (AID 743417).
For `O=S(=O)(c1ccccc1)N1CCN(c2cc(-c3ccccc3)nc3ncnn23)CC1`, the half-maximal activity concentration (AC50) is 1.12 µM.

Consider `Cc1cc(NC(=O)CCN2CCN(C/C=C/c3ccccc3)CC2)ccc1Br`, for which the AC50 was 10.2 µM.

`COc1ccc(-c2cc(N)n(S(=O)(=O)c3c(F)c(F)c(F)c(F)c3F)n2)cc1OC`: the AC50 is 0.896 µM. For the molecule `CCN1CCN(Cc2ccc(NC(=O)c3ccc(C)c(/C=C/c4cnc(Nc5cc(N6CCNCC6)nc(C)n5)cn4)c3)cc2C(F)(F)F)CC1`, the AC50 is 9.56 µM.

For `CN(c1ccccc1)S(=O)(=O)c1cccc(NC(=O)CSc2nncs2)c1`, the AC50 was 1.44 µM.

Take `O=C(Nc1ccc(N2CCN(C(=O)c3ccco3)CC2)c(Cl)c1)c1cc2ccccc2o1`: the AC50 was 5 µM. For `CC(=O)N1c2ccc(S(=O)(=O)N3CCC(C(=O)N4CCN(c5cccc(C(F)(F)F)c5)CC4)CC3)cc2CC1C` (configuration not stated) the value was 1.28 µM; for `CCCCC(=O)NC(c1ccc(Cl)cc1)c1ccc2cccnc2c1O` (configuration not stated), 0.772 µM. In the case of `CCCC(=O)OCCNc1cc(Sc2nc3ccccc3[nH]2)c2nonc2c1[N+](=O)[O-]`, the AC50 is 6.63 µM. Regarding `C[C@@H]1C[C@@H]([C@H](O)CC2CC(=O)NC(=O)C2)C(=O)[C@@H](C)C1`, the AC50 is 0.345 µM. Take `O=C(Nc1cccc(C(F)(F)F)c1)c1sc(Cl)nc1C(F)(F)F`: the AC50 is 9.06 µM.

In the case of `O=C1C=CC(O)(c2cc(=O)c3c(O)cc(O)cc3o2)C=C1`, the AC50 is 5.12 µM. For `Cc1cccc(NS(=O)(=O)c2ccc(C3CCCCC3)cc2)c1` the value was 5.13 µM; for `Cc1ccc(-c2nn(C(C)(C)C)c3ncnc(N)c23)cc1`, 5.89 µM. For `Oc1c(CN2CCOCC2)cc(COCc2ccccc2)c2cccnc12` the value was 1.28 µM; for `C=CCn1c(C)cc(C2=NNC(=NCC)SC2)c1C`, under 0.26 µM; for `O=S(=O)(c1cccs1)N1CCN(CCOc2ccc(Cl)cc2)CC1`, 13.8 µM. For `CC(NC(=O)c1cc(COc2ccc3ncccc3c2)on1)c1ccc(F)cc1` (configuration not stated) the value was 2.28 µM; for `CCOc1cc(CNCCCN2CCOCC2)cc(Br)c1OCc1ccccc1Cl`, 9.31 µM. For `CCc1nnc(NC(=O)c2cccc(C(=O)Nc3nnc(CC)s3)n2)s1`, the AC50 was 1.45 µM. Then `C=CCn1c(NCCc2ccccc2)nc2c1c(=O)n(C)c(=O)n2C`, with 1.83 µM. For `Cc1ccc(-c2nc(-c3ccccn3)no2)cc1` the value was 1.96 µM; for `CCOC(=O)C1CCCN(S(=O)(=O)c2ccc(S(=O)(=O)N(CC)CC)cc2)C1` (configuration not stated), 0.512 µM. With `CCN(C(=O)C1CCN(c2nc(-c3ccc(OC)cc3)no2)CC1)c1ccc(OC)cc1`, the AC50 was 3.17 µM. Then `COc1ccc(C(=O)Cn2c(C(=O)/C=C/c3ccccc3)nc3ccccc32)cc1`, with 4.47 µM. On to `COC(=O)C1=C(c2ccc3ccccc3c2)C[C@@H]2CC[C@H]1N2C(=O)NCC1CC1`, for which the half-maximal activity concentration (AC50) was 6.86 µM. For `O=[N+]([O-])c1cccc(S(=O)(=O)NCc2ccncc2)c1` the value was 3.09 µM; for `O=C(Nc1ccc(N2CCOCC2)cc1)c1ccc(Cl)c(S(=O)(=O)N2CCCCC2)c1`, 0.81 µM. On to `Cc1c(C(C)C)c(=O)n(-c2ccc(S(=O)(=O)NCc3ccccc3)cc2)n1C`, for which the AC50 is 1.18 µM. Then `CC(=O)c1ccc(N2CCN(S(=O)(=O)c3ccc(-c4cnc(C5CC5)o4)cc3)CC2)cc1`, with 5.95 µM. Consider `CN(c1cccc(NC(=O)CN(c2ccc(C34CC5CC(CC(C5)C3)C4)cc2)S(C)(=O)=O)c1)S(C)(=O)=O`, for which the AC50 was 7.58 µM.

For `C=C1C(=O)O[C@@H]2C[C@@H](C)[C@@H]3C=CC(=O)[C@@]3(C)[C@@H](O)[C@H]12`, the AC50 was 0.825 µM. Then `CC(C)NC(=O)C1CCN(C(=O)c2cc3sccc3n2Cc2ccc(F)cc2)CC1`, with 5.05 µM. For the molecule `CN(C)S(=O)(=O)c1cccc(N=c2scc(-c3ccc4c(c3)NC(=O)CO4)n2CC2CCCO2)c1` (configuration not stated), the AC50 was 14 µM. For `CCCC(=O)NC(c1ccc(C(C)C)cc1)c1ccc2cccnc2c1O` (configuration not stated) the value was 0.47 µM. Consider `CN(Cc1ccc(OC(F)F)cc1)C(=O)c1cccc(S(=O)(=O)N2CCN(c3ccccc3)CC2)c1`, for which the AC50 is 2.59 µM. For `O=C(CSc1c2c(nc3ccc(Cl)cc13)CCCC2)N1CCN(C(=O)c2ccco2)CC1` the value was 3.75 µM.

As for `C=C1CC(COc2cc(=O)oc3ccccc23)(c2ccccc2)OC1=O` (configuration not stated), the AC50 is 3.93 µM. Then `COc1ccc(OC)c(/C=C/C(=O)N2C(=O)c3cccc(N)c3C2=O)c1`, with 3.25 µM. In the case of `CN(C)C1=NC[C@H](Cc2ccccc2)N1CCCC1CCCC1`, the concentration at half-maximal activity (AC50) is 2.63 µM. For `COc1ccc(CC(N)c2csc(NC(=O)NC(c3ccccc3)c3ccccc3)n2)cc1` (configuration not stated) the value was 6.4 µM; for `O=C(CSc1ccccn1)Nc1nonc1[N+](=O)[O-]`, 5 µM; for `O=C(C1=C[C@@H](C2CC2)C[C@@H](OCCCCO)O1)N1CCN(Cc2ccccc2)CC1`, > 70 µM (inactive). Then `O=C1C(=C(c2ccccc2)N2CCOCC2)Cc2ccccc21`, with 0.999 µM; and `c1ccc(-c2ccc(-c3nc(-c4ccccn4)no3)cc2)cc1`, with 3.75 µM. `CCCCCCCN1C(Nc2ccccc2)=NC[C@@H]1Cc1ccccc1`: the AC50 is 4.82 µM. Regarding `CC(C)c1ccccc1-n1c(SCC(=O)N2CCc3ccccc3C2)nc2ccccc2c1=O`, the concentration at half-maximal activity (AC50) was 2.99 µM.

Turning to `CCC(=O)N1CCN(c2ccc(NC(=O)c3ccc([N+](=O)[O-])o3)cc2Cl)CC1`, the half-maximal activity concentration (AC50) is 0.85 µM. `CC1=C(C(=O)OC2CCCCC2)C(c2cccnc2)n2nnnc2N1` (configuration not stated): the AC50 is 3.23 µM. For `O=C(/C=C/Sc1ncn[nH]1)c1ccc(Cl)cc1` the value was 9.76 µM.

For `Cc1ccc(C)c(S(=O)(=O)N2CCN(Cc3ccc(O)c4ncccc34)CC2)c1`, the AC50 is 2.84 µM.

As to `CC(C)(C)c1ccc(-n2ncc3c2CCCC3NC(=O)C2(C(N)=O)CC2)cc1` (configuration not stated), the AC50 was 0.589 µM.

For `CCOC(=O)c1oc2ccc(S(=O)(=O)n3nc(-c4ccccc4)cc3N)cc2c1C`, the AC50 is 0.854 µM. For `COc1ccc(NC(=O)/C(Cl)=C(/Cl)S(=O)Cc2ccc(Cl)cc2)cn1` (configuration not stated) the value was 1.34 µM. For `COc1cccc(CNc2ncnc3cc(Cl)ccc23)c1` the value was 3.73 µM. Consider `COc1ccc(C(=O)NC2CCCc3c2cnn3-c2cccc(C)c2C)c(OC)n1` (configuration not stated), for which the half-maximal activity concentration (AC50) is 1.96 µM.

As to `O=C(/C=C/c1cccc([N+](=O)[O-])c1)n1cnc2ccccc21`, the AC50 is 0.594 µM. For `COc1ccccc1/C=C1\CCCC2=C1Nc1nnnn1C2c1ccccc1OC` (configuration not stated) the value was 36 µM; for `CCCCCCCNC(=O)C1(CC2CC(c3cccc(Br)c3)=NO2)CCNCC1` (configuration not stated), 11.7 µM; for `c1ccc(CC2CCN(c3ncnc4sccc34)CC2)cc1`, 0.362 µM. Take `COc1ccc(CN2CCC(C(=O)Nc3ccc(Oc4cccnc4)cc3)CC2)c(C)c1C`: the AC50 is 3.68 µM. Consider `Cc1cc(C)c(CN2CCN(C(=O)Cn3cnc4c(NCc5ccccc5)ncnc43)CC2)c(C)c1`, for which the AC50 was 0.417 µM.

Consider `Cc1sc2ncnc(N3CCN(S(=O)(=O)c4ccccc4)CC3)c2c1C`, for which the AC50 was 2.3 µM. `C=C1C(=O)c2sccc2C(c2ccc(OC)c(OC)c2)C1COC(C)=O` (configuration not stated): the AC50 was 0.662 µM. For `CCN(CC)CCCNc1nc2ccccc2c2[nH]c3ccc(OC)cc3c12`, the AC50 was 12.3 µM.

As to `O=C(Nc1ccc(F)cc1)c1nc(S(=O)(=O)Cc2ccccc2)ncc1Cl`, the AC50 is 3.38 µM.

With `COc1cc(NS(C)(=O)=O)ccc1Nc1c2ccccc2nc2ccccc12`, the AC50 was 1.32 µM. In the case of `CC(=O)OCCCNc1cc(Sc2ccc(C)cc2)c2nonc2c1[N+](=O)[O-]`, the AC50 is 1.1 µM. Turning to `C=C1C(=O)C23C(O)C1CCC2C12COC3(O)C(O)C1C(C)(C)CCC2O` (configuration not stated), the AC50 is 3.3 µM. Then `Cc1ccc(-n2ncc3c(N4CCN(c5ccc(F)cc5)CC4)ncnc32)c(C)c1`, with 3.24 µM; and `CC(CCCC(C)(C)O)NC(=O)c1cc(COc2ccc3ncccc3c2)on1` (configuration not stated), with 1.75 µM; and `CC(=O)OC1(C)CC(C)C(=O)C(C(O)CC2CC(=O)NC(=O)C2)C1` (configuration not stated), with under 0.26 µM. In the case of `CC(C)(C)C(=O)/C(=C/c1ccc(Cl)cc1)n1cncn1`, the AC50 was 3.75 µM.

Regarding `COc1ccc(-n2c(C)cc(C(=O)CSc3nnc(-c4cccs4)o3)c2C)cc1`, the AC50 was 5.03 µM. Take `Cc1ccc(S(=O)(=O)Nc2cccc3ncccc23)s1`: the AC50 was 3.85 µM. As to `COc1ccc(C2=NS(=O)(=O)N(C)C(C(=O)N3CCc4ccccc4C3)=C2)cc1OC`, the AC50 is 4.99 µM. For `O=C(Nc1nc(-c2ccccc2)cs1)C1CCCCN1S(=O)(=O)c1ccccc1` (configuration not stated) the value was 5.14 µM; for `CCCS(=O)(=O)Nc1ccc(Nc2c3ccccc3nc3ccccc23)c(OC)c1`, 3.39 µM; for `COc1cccc(NC(=O)c2nc(S(C)(=O)=O)ncc2Cl)c1`, 0.834 µM.

`COc1cc(NS(=O)(=O)c2ccc(C)cc2)c2ncccc2c1`: the AC50 was 3.35 µM.

As to `CN(C(=O)OC(C)(C)C)c1ccc(-c2nc3ccccc3s2)cc1`, the AC50 was under 0.26 µM. As to `CCc1ccc(-n2c(O)c(C=NCCN(CC)CC)c(=O)[nH]c2=O)cc1`, the AC50 was > 70 µM (inactive). Then `O=C(c1ccccc1)N1CCN(c2ncnc3sc4c(c23)CCC4)CC1`, with 4.14 µM; and `O=C(C(=Cc1ccccc1)CN1CCCCC1)c1ccccc1`, with 3.18 µM; and `COc1ccc2c(CC(=O)OCC(=O)N(C)c3c(N)n(Cc4ccccc4)c(=O)[nH]c3=O)coc2c1`, with 21.2 µM. Consider `CN(CC(=O)Nc1ccccc1Cl)C(=O)c1cccc(S(=O)(=O)N2CCN(c3ccccc3)CC2)c1`, for which the AC50 is 3.84 µM. On to `CCOC(=O)c1c(C)[nH]c(C)c1C(=O)CSc1nc2ccccc2c(=O)n1-c1ccc(CC)cc1`, for which the concentration at half-maximal activity (AC50) was 5.36 µM.

`CCC(O)C1CCN(C(=O)c2cc(COc3ccc4ncccc4c3)on2)CC1` (configuration not stated): the AC50 is 0.505 µM. On to `COC(=O)c1ccc(CCc2cc(O)ccc2O)cc1`, for which the AC50 is 3.14 µM. For the molecule `CC(C)(C)n1nnnc1C(c1ccc(C(F)(F)F)cc1)N(Cc1ccc(F)cc1)Cc1ccco1` (configuration not stated), the half-maximal activity concentration (AC50) is 10.1 µM.

`CCC(=O)NC(c1ccco1)c1cc(Cl)c2cccnc2c1O` (configuration not stated): the AC50 was 1.31 µM. Then `C[C@H]1COC(=O)[C@H](NC(=O)OCC2c3ccccc3-c3ccccc32)C/C=C\C[C@H](CC(=O)N(CCO)Cc2ccccc2)C(=O)N1`, with 6.08 µM.

The values are drawn from PubChem BioAssay AID743417 (Broad Institute, 2014).
